The target of the experiment is MCH receptor (Homo sapiens, UniProt Q99705). Kind of experiment: High throughput functional screening FLIPR/FDSS6000: inhibition of MCH-evoked intracellular Ca2+ changes. Type of experiment: cell-based. The source says: Subsequently, a functional based assay was used to confirm the lead hits, referred to as FLIPR™ (the Fluorometric Imaging Plate Reader) and FDSS6000™ (Functional Drug Screening System). This assay utilized 3 non-endozenous, constitutively active version of the MCH receptor.
The FLIPR and FDSS assays are able to detect intracellular Ca^2+ concentration in cells, which can be utilized to assess receptor activation and determine whether a candidate compound is an, for example, antagonist, inverse agonist or agonist to a Gq-coupled receptor. The concentration of free Ca^2+ in the cytosol of any cell is extremely low, whereas its concentration in the extracellular fluid and endoplasmic reticulum (ER) is very high. Thus, there is a large gradient tending to drive Ca^2+ into the cytosol across both the plasma membrane and ER. The FLIPR™ and FDSS6000™ systems (Molecular Devices Corporation, HAMAMATSU Photonics K.K.) are designed to perform functional cell-based assays, such as the measurement of intracellular calcium for high-throughput screening, The measurement of fluorescent is associated with calcium release upon activation of the Gq-coupled receptors.
Fluorometric Imaging Plate Reader system was used to allow for rapid, kinetic measurements of intracellular fluorescence in 96 well microplates (or 384 well microplates). Simultaneous measurements of fluorescence in all wells can be made by FLIPR or FDSS6000™ every second with high sensitivity and precision. These systems are ideal for measuring cell-based functional assays such as monitoring the intracellular calcium fluxes that occur within seconds after activation of the Gq coupled receptor.
Briefly, the cells are seeded into 96 well at 5.5×10^4 cells/well with complete culture media (Dulbecco's Modified Eagle Medium with 10% fetal bovine serum, 2 mMi L-glutamine, 1 mM sodium pyruvate and 0.5 mg/ml G418, pH 7.4) for the assay next day. On the day of assay, the media is removed and the cells are incubated with 100 μl of loading buffer (4 μM Fluo4-AM in complete culture media containing 2.5 mM Probenicid, 0.5 mg/ml and 0.2% bovine serum albumin) in 5% CO2 incubator at 37° C. for 1 hr. The loading buffer is removed, and the cells are washed with wash buffer (Hank's Balanced Salt Solution containing 2.5 mM Probenicid, 20 mM HEPES, 0.5 mg/ml and 0.2% bovine serum albumm, pH 7.4)). One hundred fifty μl of wash buffer containing various concentrations of test compound is added to the cells, and the cells are incubated in 5% CO2 incubator at 37° C. for 3 min. Fifty μl of wash buffer containing various concentration of MCH are added to each well, and transient changes in [Ca^2+]i evokled bee MCH are monoitored using the FLIPR, or FDSS in 96 shell plates at Ex. 488 nm and Em. 530 nm for 290 second. When antagonist activity of compound is tested, 50 nM of MCH is used.
Use of FLIPR™ and FDSS6000™ can be accomplished by following manufacturer's instruction (Molecular Device Corporation and HAMAMATSU Photonics K.K.).

Where [1] appears, read: class by percent of control at 10^−7 M or by IC50, read-out: class.

Structures can show the parent of a compound that is named as a salt. Where two headings read alike, the source gives them in different places.

Turning to `CN(C)c1nc(N[C@H]2CC[C@@H](NC(=O)COc3ccc(F)c(F)c3)CC2)nc2ccccc12` [Example 909, 2-(3,4-Difluorophenoxy)-N-(cis-4-{[4-(dimethylamino)quinazolin-2-yl]amino}cyclohexyl)-acetamide trifluoroacetate], the IC50 (antagonist activity, 50 nM of MCH, FLIPR or FDSS, read-out: IC50) worked out at 0.97 nM.

With `CN(C)c1nc(N[C@H]2CC[C@@H](C(=O)NCc3ccc(F)cc3F)CC2)nc2ccccc12` [Example 922, cis-N-(2,4-Difluorobenzyl)-4-{[4-(dimethylamino)quinazolin-2-yl]amino}cyclohexanecarbozamide], the IC50 (class by percent of control at 10^-7 M or by IC50, read-out: class) is above 200 nM.

Consider `CN(C)c1nc(N[C@H]2CC[C@@H](C(=O)NCc3ccccc3)CC2)nc2cc(F)c(F)cc12` [Example 992, cis-N-benzyl-4-{[4-(dimethylamino)-6,7-difluoroquinazolin-2-yl]amino}cyclohexanecarboxamide], for which the IC50 under setting [1] lay in the range of 50 to 200 nM.

Consider `COc1cc(CNC(=O)[C@H]2CC[C@@H](Nc3nc(N(C)C)c4cc(F)c(F)cc4n3)CC2)cc(OC)c1` [Example 993, cis-N-(3,5-dimethoxybenzyl)-4-{[4-(dimethylamino)-6,7-difluoroquinazolin-2-yl]amino}cyclohexanecarboxamide], for which the IC50 under setting [1] lay within 50 to 200 nM.

Consider `COc1ccc(CNC(=O)[C@H]2CC[C@@H](Nc3nc(N(C)C)c4cc(F)c(F)cc4n3)CC2)cc1` [Example 994, cis-4-{[4-(dimethylamino)-6,7-difluoroquinazolin-2-yl]amino}-N-(4-methoxybenzyl)cyclohexanecarboxamide], for which the IC50 under setting [1] is below 50 nM.

`COc1cccc(CNC(=O)[C@H]2CC[C@@H](Nc3nc(N(C)C)c4cc(F)c(F)cc4n3)CC2)c1` [Example 995, cis-4-{[4-(dimethylamino)-6,7-difluoroquinazolin-2-yl]amino}-N-(3-methoxybenzyl)cyclohexanecarboxamide]: the IC50 under setting [1] is 50 to 200 nM.

Take `CN(C)c1nc(N[C@H]2CC[C@@H](C(=O)NCc3ccc(Cl)nc3)CC2)nc2cc(F)c(F)cc12` [Example 996, cis-N-[(6-chloropyridin-3-yl)methyl]-4-{[4-(dimethylamino)-6,7-difluoroquinazolin-2-yl]amino}cyclohexanecarboxamide]: under setting [1], the IC50 lay in the range of 50 to 200 nM.

In the case of `CN(C)c1nc(N[C@H]2CC[C@@H](C(=O)NCc3ccc(F)cc3F)CC2)nc2cc(F)c(F)cc12` [Example 997, cis-N-(2,4-difluorobenzyl)-4-{[4-(dimethylamino)-6,7-difluoroquinazolin-2-yl]amino}cyclohexanecarboxamide], the IC50 under setting [1] was above 200 nM.

`CN(C)c1nc(N[C@H]2CC[C@@H](C(=O)NCc3cccc(C(F)(F)F)c3)CC2)nc2cc(F)c(F)cc12` [Example 998, cis-4-{[4-(dimethylamino)-6,7-difluoroquinazolin-2-yl]amino}-N-[3-(trifluoromethyl)benzyl]cyclohexanecarboxamide]: under setting [1], the IC50 is below 50 nM.

As for `CN(C)c1nc(N[C@H]2CC[C@@H](C(=O)NCc3ccc(C(F)(F)F)cc3)CC2)nc2cc(F)c(F)cc12` [Example 999, cis-4-{[4-(dimethylamino)-6,7-difluoroquinazolin-2-yl]amino}-N-[4-(trifluoromethyl)benzyl]cyclohexanecarboxamide], under setting [1], the IC50 is 50 to 200 nM.

For `CN(C)c1nc(N[C@H]2CC[C@@H](C(=O)NCc3ccc(Cl)cc3Cl)CC2)nc2cc(F)c(F)cc12` [Example 1000, cis-N-(2,4-dichlorobenzyl)-4-{[4-(dimethylamino)-6,7-difluoroquinazolin-2-yl]amino}cyclohexanecarboxamide], under setting [1], the IC50 is below 50 nM.

Take `CN(C)c1nc(N[C@H]2CC[C@@H](C(=O)NCc3cc(Cl)cc(Cl)c3)CC2)nc2cc(F)c(F)cc12` [Example 1001, cis-N-(3,5-dichlorobenzyl)-4-{[4-(dimethylamino)-6,7-difluoroquinazolin-2-yl]amino}cyclohexanecarboxamide]: the IC50 under setting [1] was below 50 nM.

The record behind these values is patent US20070010671A1, “Novel quinazoline derivatives and methods of treatment related to the use thereof” (priority 2003, published 2007).
